Measured values reported in article PMC8776995 (Frontiers in Chemistry, 2022).
Values joined by “and” are separate entries in the source; they are usually repeats but may differ in a detail not shown here. Equal entries are not always repeated.

What was measured:
[1] = biological target: wild-type EGFR (Homo sapiens, UniProt P00533); assay: EGFR kinase assay (ELISA); conditions: for A450: raw ELISA absorbance
Experimental: The kinase enzyme of EGFR was purchased from Carna Bioscience (Kobe, Japan). A total of 10 ng/ml anti phosphotyrosine (PY713) antibody (abcam, Cambridge Science Park, United Kingdom) was precoated in 96-well ELISA plates. […] Then, a total of 3 μmol/L ATP was added and the reaction was continued for 2 h. […] After incubation, the wells were washed with PBS and then incubated with horseradish peroxidase (HRP)-conjugated streptavidin. The wells were visualized using 3,3′,5,5′-tetramethylbenzidine (TMB), and chromogenic reaction was ended with 2 mol/L H2SO4, the absorbance was read with a multimode plate reader (PerkinElmer, United States) at 450 nm.

[2] = tested on: PC-9 cells; assay: CCK-8 antiproliferation assay, PC-9; conditions: for Inhibitory efficacy: single repeats (Repeat 1-3), given as fraction
[3] = tested on: H460 cells; assay: CCK-8 antiproliferation assay, H460; conditions: for Inhibitory efficacy: H460 cells
[4] = tested on: H1975 cells; assay: CCK-8 antiproliferation assay, H1975; conditions: Homo sapiens, NCI-H1975, 48 h, read-out: IC50 (μM) H1975, CCK-8, 48 h, average ± SD of three independent experiments
Experimental: The compounds were dissolved in DMSO to make a 20 μM stock solution and diluted to the concentration of working solutions with complete growth medium before administration.
Cells were seeded in 96-well plates: 3,000–5,000 cells/well in 100 ul. One day after seeding, the test compounds at concentration between 1.0 and 16.0 μ M or 0.1% DMSO (as control) were added to cells in triplicate. 48 h later, CCK-8 was added and incubated the plate for 1–4 h in the incubator. The absorbance at 450 nm were measured using a microplate reader (Bio-Tek).

[5] = tested on: A549 cells; assay: CCK-8 antiproliferation assay, A549; conditions: for Inhibitory efficacy: A549 cells
[6] = 2uM, given as fraction, Repeat 1-3
[7] = 16uM, given as fraction, Repeat 1-3

Chain of wild-type EGFR (P00533 25-1210): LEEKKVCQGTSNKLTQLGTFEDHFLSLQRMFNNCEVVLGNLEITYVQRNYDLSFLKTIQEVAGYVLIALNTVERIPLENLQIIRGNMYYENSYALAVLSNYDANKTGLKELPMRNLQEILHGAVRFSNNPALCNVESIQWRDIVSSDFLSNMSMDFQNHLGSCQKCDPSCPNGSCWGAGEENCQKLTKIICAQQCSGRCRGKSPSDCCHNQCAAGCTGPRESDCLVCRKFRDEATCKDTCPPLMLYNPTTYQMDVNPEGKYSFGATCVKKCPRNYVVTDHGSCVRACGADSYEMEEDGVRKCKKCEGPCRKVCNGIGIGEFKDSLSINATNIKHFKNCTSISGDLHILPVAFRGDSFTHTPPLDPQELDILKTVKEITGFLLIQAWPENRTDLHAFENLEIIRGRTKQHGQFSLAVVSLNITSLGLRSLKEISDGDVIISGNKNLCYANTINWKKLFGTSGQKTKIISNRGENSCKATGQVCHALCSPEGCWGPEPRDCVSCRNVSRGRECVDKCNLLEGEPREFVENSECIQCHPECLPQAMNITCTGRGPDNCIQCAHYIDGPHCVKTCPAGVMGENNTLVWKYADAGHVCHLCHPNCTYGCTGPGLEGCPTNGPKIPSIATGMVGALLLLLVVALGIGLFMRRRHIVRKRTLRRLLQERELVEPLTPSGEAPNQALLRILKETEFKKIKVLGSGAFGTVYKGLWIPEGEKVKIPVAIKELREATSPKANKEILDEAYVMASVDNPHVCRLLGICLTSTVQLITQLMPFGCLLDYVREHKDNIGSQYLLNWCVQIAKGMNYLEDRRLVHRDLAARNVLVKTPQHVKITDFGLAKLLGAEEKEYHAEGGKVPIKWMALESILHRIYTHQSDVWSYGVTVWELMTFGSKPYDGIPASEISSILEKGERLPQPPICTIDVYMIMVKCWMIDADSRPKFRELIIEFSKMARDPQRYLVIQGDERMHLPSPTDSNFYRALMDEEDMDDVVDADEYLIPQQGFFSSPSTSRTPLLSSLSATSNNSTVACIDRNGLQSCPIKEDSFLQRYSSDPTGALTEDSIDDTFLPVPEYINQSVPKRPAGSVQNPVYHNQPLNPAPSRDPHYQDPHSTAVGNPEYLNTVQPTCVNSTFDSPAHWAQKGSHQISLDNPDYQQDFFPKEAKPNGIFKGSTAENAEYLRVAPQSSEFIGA

Question: With `COCCOc1cc2ncnc(Nc3cccc(-c4cn(-c5ccc(OC)c(OC)c5)nn4)c3)c2cc1OCCOC` [e19, N-(3-(1-(3,4-dimethoxyphenyl)-1H-1,2,3-triazol-4-yl)phenyl)-6,7-bis(2-methoxyethoxy)quinazolin-4-amine] as the compound, how does the IC50 ([1]; IC50 (μM) EGFR, ELISA, 3 μmol/L ATP) read?
Answer: 28.1 µM

Question: What about the inhibition at 100 fM ([1]; concentration 0.0001 nM (reference for normalisation), one value per replicate column) of the same compound?
Answer: 0%

Question: And the inhibition at 30 pM ([1]; concentration 0.03 nM, one value per replicate column)?
Answer: 0%

Question: And the inhibition at 0.0003 µM ([1]; concentration 0.3 nM, one value per replicate column)?
Answer: 1.06%

Question: And the Inhibition ([1]; concentration 0.3 nM, one value per replicate column, 0.0003 µM)?
Answer: 0.9259

Question: What about the inhibition at 0.003 µM ([1]; concentration 3 nM, one value per replicate column) of the same compound?
Answer: 2.12%

Question: And the Inhibition ([1]; concentration 3 nM, one value per replicate column, 0.003 µM)?
Answer: 3.333

Question: What about the inhibition at 0.03 µM ([1]; concentration 30 nM, one value per replicate column) of the same compound?
Answer: 6.35%

Question: And the Inhibition ([1]; concentration 30 nM, one value per replicate column, 0.03 µM)?
Answer: 7.222

Question: And the inhibition at 0.3 µM ([1]; concentration 300 nM, one value per replicate column)?
Answer: 6.7%

Question: What about the Inhibition ([1]; concentration 300 nM, one value per replicate column, 0.3 µM) of the same compound?
Answer: 10.3704

Question: And the inhibition at 3 µM ([1]; concentration 3000 nM, one value per replicate column)?
Answer: 8.29%

Question: What about the Inhibition ([1]; concentration 3000 nM, one value per replicate column, 3 µM) of the same compound?
Answer: 15.5556

Question: What about the inhibition at 30 µM ([1]; concentration 30000 nM, one value per replicate column) of the same compound?
Answer: 52.7%

Question: What about the Inhibition ([1]; concentration 30000 nM, one value per replicate column, 30 µM) of the same compound?
Answer: 51.6667

Question: What about the A450 ([1]; concentration 0.0001 nM) of the same compound?
Answer: 0.772 and 0.745

Question: And the A450 ([1]; concentration 0.03 nM)?
Answer: 0.772 and 0.745

Question: What about the A450 ([1]; concentration 0.3 nM) of the same compound?
Answer: 0.766 and 0.74

Question: What about the A450 ([1]; concentration 3 nM) of the same compound?
Answer: 0.76 and 0.727

Question: And the A450 ([1]; concentration 30 nM)?
Answer: 0.736 and 0.706

Question: And the A450 ([1]; concentration 300 nM)?
Answer: 0.734 and 0.689

Question: And the A450 ([1]; concentration 3000 nM)?
Answer: 0.725 and 0.661

Question: What about the A450 ([1]; concentration 30000 nM) of the same compound?
Answer: 0.473 and 0.466

Question: And the IC50 ([2]; Homo sapiens, PC-9, 48 h, read-out: IC50 (μM) PC-9)?
Answer: 23.5 ± 10.2 µM

Question: And the inhibition at 1 µM ([2]; Homo sapiens, PC-9, read-out: Inhibitory efficacy, PC-9, 1uM, single repeats (Repeat 1-3), given as fraction)?
Answer: 21.9%

Question: What about the inhibition at 2 µM ([2]; Homo sapiens, PC-9, read-out: Inhibitory efficacy, PC-9, 2uM, single repeats (Repeat 1-3), given as fraction) of the same compound?
Answer: 32.9%

Question: What about the inhibition at 8 µM ([2]; Homo sapiens, PC-9, read-out: Inhibitory efficacy, PC-9, 8uM, single repeats (Repeat 1-3), given as fraction) of the same compound?
Answer: 35.7%

Question: What about the inhibition at 16 µM ([2]; Homo sapiens, PC-9, read-out: Inhibitory efficacy, PC-9, 16uM, single repeats (Repeat 1-3), given as fraction) of the same compound?
Answer: 49.7%

Question: And the Inhibitory efficacy ([2]; PC-9, 1uM, 1 µM)?
Answer: 0.1694 and 0.3158

Question: And the Inhibitory efficacy ([2]; PC-9, 2uM, 2 µM)?
Answer: 0.2911 and 0.3553

Question: And the Inhibitory efficacy ([2]; PC-9, 4uM, 4 µM)?
Answer: 0.4984 and 0.2516 and 0.3668

Question: What about the Inhibitory efficacy ([2]; PC-9, 8uM, 8 µM) of the same compound?
Answer: 0.4737 and 0.4424

Question: What about the Inhibitory efficacy ([2]; PC-9, 16uM, 16 µM) of the same compound?
Answer: 0.4062 and 0.4457

Question: And the melting point?
Answer: 106 to 109 °C

Question: And the Inhibitory efficacy [3, 6]?
Answer: 0.2578 and 0.3115

Question: And the Inhibitory efficacy [3, 7]?
Answer: 0.424 and 0.3358

Question: What about the IC50 ([3]; Homo sapiens, NCI-H460, 48 h, read-out: IC50 (μM) H460, CCK-8, 48 h, average ± SD of three independent experiments) of the same compound?
Answer: > 100 µM

Question: What about the inhibition at 2 µM ([3]; Homo sapiens, NCI-H460, read-out: Inhibitory efficacy, H460 cells, 2uM, given as fraction, Repeat 1-3) of the same compound?
Answer: 32.2%

Question: What about the inhibition at 16 µM ([3]; Homo sapiens, NCI-H460, read-out: Inhibitory efficacy, H460 cells, 16uM, given as fraction, Repeat 1-3) of the same compound?
Answer: 33.1%

Question: What about the IC50 [4] of the same compound?
Answer: > 100 µM

Question: And the Inhibitory efficacy ([5]; 1uM, given as fraction, Repeat 1-3)?
Answer: 0.1948 and 0.1677

Question: What about the Inhibitory efficacy [5, 6] of the same compound?
Answer: 0.2727 and 0.2237

Question: What about the Inhibitory efficacy ([5]; 4uM, given as fraction, Repeat 1-3) of the same compound?
Answer: 0.2792 and 0.2418

Question: What about the Inhibitory efficacy [5, 7] of the same compound?
Answer: 0.2527 and 0.2605

Question: What about the IC50 ([5]; Homo sapiens, A549, 48 h, read-out: IC50 (μM) A549, CCK-8, 48 h, average ± SD of three independent experiments) of the same compound?
Answer: > 100 µM

Question: What about the inhibition at 1 µM ([5]; Homo sapiens, A549, read-out: Inhibitory efficacy, A549 cells, 1uM, given as fraction, Repeat 1-3) of the same compound?
Answer: 21.2%

Question: And the inhibition at 2 µM ([5]; Homo sapiens, A549, read-out: Inhibitory efficacy, A549 cells, 2uM, given as fraction, Repeat 1-3)?
Answer: 23.7%

Question: And the inhibition at 4 µM ([5]; Homo sapiens, A549, read-out: Inhibitory efficacy, A549 cells, 4uM, given as fraction, Repeat 1-3)?
Answer: 19.7%

Question: And the inhibition at 16 µM ([5]; Homo sapiens, A549, read-out: Inhibitory efficacy, A549 cells, 16uM, given as fraction, Repeat 1-3)?
Answer: 26.2%
